Assay results from US4594329A, “CRF analogs” (The Salk Institute for Biological Studies, priority 1984, dated 1986).
Square brackets hold non-standard residues; d marks the D form. Nle = CCCC[C@H](N)C(=O)O

Tests used:
[1] = lowering of blood pressure, in vivo testing
[2] = system: secretion of ACTH and β-endorphin; experiment: stimulation of ACTH and β-endorphin, background statements (in vitro and in vivo); details: synthetic peptide
[3] = system: secretion of ACTH and β-endorphin; details: in mammals; cited from earlier work
[4] = in mammals; cited from earlier work
[5] = rats; administered into the ventricles; cited from earlier work
[6] = system: cultured rat pituitary cells; experiment: secretion of ACTH and β-endorphin by cultured rat pituitary cells; format: cell-based; details: general procedure of Example III

Compound: CC[C@H](C)[C@H](NC(=O)[C@@H](NC(=O)[C@H](CCC(=O)O)NC(=O)[C@H](CCSC)NC(=O)[C@H](CC(C)C)NC(=O)[C@H](CCCCN)NC(=O)[C@H](CCCNC(=N)N)NC(=O)[C@H](CC(N)=O)NC(=O)[C@H](CO)NC(=O)[C@H](Cc1c[nH]cn1)NC(=O)[C@H](C)NC(=O)[C@H](CCC(N)=O)NC(=O)[C@H](CCC(N)=O)NC(=O)[C@H](C)NC(=O)[C@H](CC(C)C)NC(=O)[C@H](CCC(N)=O)NC(=O)[C@H](CCC(=O)O)NC(=O)[C@H](C)NC(=O)[C@H](CCCNC(=N)N)NC(=O)[C@H](C)NC(=O)[C@H](CCSC)NC(=O)[C@H](CCC(=O)O)NC(=O)[C@H](CC(C)C)NC(=O)[C@@H](NC(=O)[C@H](CCC(=O)O)NC(=O)[C@H](CCCNC(=N)N)NC(=O)[C@H](CC(C)C)NC(=O)[C@H](CC(C)C)NC(=O)[C@H](Cc1c[nH]cn1)NC(=O)[C@H](Cc1ccccc1)NC(=O)[C@@H](NC(=O)[C@H](CC(C)C)NC(=O)[C@H](CC(=O)O)NC(=O)[C@H](CC(C)C)NC(=O)[C@H](CO)NC(=O)[C@@H](NC(=O)[C@@H]1CCCN1C(=O)[C@@H]1CCCN1C(=O)[C@H](CCC(=O)O)NC(=O)[C@H](CCC(=O)O)NC(=O)[C@@H](N)CO)[C@@H](C)CC)[C@@H](C)O)C(C)C)[C@@H](C)CC)C(N)=O [rCRF, reference compound]
- lowering of blood pressure ([1]; synthetic peptide, extended time period): substantially lower blood pressure for an extended time period
- stimulation of ACTH and β-endorphin activities [2]: stimulate ACTH and β-endorphin activities in vitro and in vivo

Compound: CC[C@H](C)[C@H](NC(=O)[C@@H](NC(=O)[C@H](CC(=O)O)NC(=O)[C@H](CC(C)C)NC(=O)[C@H](CC(C)C)NC(=O)[C@H](CC(C)C)NC(=O)[C@H](CCCNC(=N)N)NC(=O)[C@H](CC(N)=O)NC(=O)[C@H](CC(N)=O)NC(=O)[C@H](C)NC(=O)[C@H](C)NC(=O)[C@H](CCC(N)=O)NC(=O)[C@H](CCC(N)=O)NC(=O)[C@H](CCCCN)NC(=O)[C@H](CCC(=O)O)NC(=O)[C@H](CCCCN)NC(=O)[C@H](CCC(=O)O)NC(=O)[C@H](CCC(N)=O)NC(=O)[C@H](CCCCN)NC(=O)[C@H](CCC(=O)O)NC(=O)[C@@H](NC(=O)[C@H](CCC(=O)O)NC(=O)[C@@H](NC(=O)[C@H](CCSC)NC(=O)[C@H](CCCCN)NC(=O)[C@H](CCCNC(=N)N)NC(=O)[C@H](CC(C)C)NC(=O)[C@H](CC(C)C)NC(=O)[C@H](CCC(=O)O)NC(=O)[C@H](CC(C)C)NC(=O)[C@H](CO)NC(=O)[C@H](CC(C)C)NC(=O)[C@H](CC(=O)O)NC(=O)[C@@H](NC(=O)[C@H](CO)NC(=O)[C@@H](NC(=O)[C@@H]1CCCN1C(=O)[C@@H]1CCCN1C(=O)CNC(=O)[C@@H]1CCC(=O)N1)[C@@H](C)CC)[C@@H](C)CC)[C@@H](C)CC)[C@@H](C)CC)[C@@H](C)O)C(N)=O [Sauvagine]
- biological activity in stimulating the secretion of ACTH and β-endorphin (reported) [3]: stimulating the secretion of ACTH and β-endorphin
- biological activity in lowering blood pressure (reported) [4]: biological activity in lowering blood pressure in mammals

Compound: CRF: corticotropin releasing factor, the hentetracontapeptide; species not stated at the place (H-SEEPPISLDLTFHLLREVLEMARAEQLAQQAHSNRKLMEII-NH2; ends and bridges not checked; UniProt P06850 154-194, looked up)
- activity [5]: increases activity
- learning performance [5]: improves learning performance

Compound: H-SQE[dP]PISLDLTFHLLRE[Nle]LE[Nle]AKAEQEAEQAALNRLLLEEA-NH2 [[D-Pro^4, Nle^18,21]-AHC]
- lowering of blood pressure ([1]; general procedure of Example III): very significant lowering of blood pressure
- stimulates the secretion of ACTH and β-END-LI [6]: stimulates the secretion of ACTH and β-END-LI
